Source: patent US20240034717A1, “NOVEL POTASSIUM CHANNEL INHIBITORS” (Saniona A/S, priority 2020, published 2024)
“And” between values parts separate entries of the source, which are not always exact repeats. Equal entries are not always repeated.

Experiments:
physchem = conditions: for solubility at 16 h: 25 °C, pH 7.4, aqueous buffer, kinetic from dmso stock
Experimental: 2.79 g of K2HPO4 and 0.54 g of KH2PO4 was dissolved in 390 mL of milliQ water. pH was adjusted to 7.4 using 1N HCl/1N NaOH and final volume was made up to 400 mL with milliQ water.
In case of compounds not soluble/less quantity submission, 40/20/10Mm stocks were prepared and used for experiment.
Assay Procedure: • 245 μL of 50 mM phosphate buffer then 5 μL each of test compound/standards (80 mM) in their respective positions was added to the 1.1 mL 96 well plate. • DMSO Controls was prepared by taking 245 μL of 100% DMSO then 5 μL each of test compound in their respective positions and added to the 1.1 mL 96 well plate • Plate was incubated with mixing at 1600 RPM for 16 hours at room temperature (˜23 MC). • After incubation, samples were filtered using Millipore plates. • Filtrates were analysed by HPLC-UV.
Solubility is calculated using the following formula: […]

[1] = target: erythrocyte KCa3.1 channels (Homo sapiens (Human), UniProt O15554); assay: Erythrocyte KCa3.1 assay; assay type: cell-based; conditions: human erythrocytes, A23187-activated KCa3.1; read-out: RBC K (in vitro) Human IC50 (μM) Potency category
Experimental: Human blood was drawn from healthy human volunteers in a standard heparinized blood sampling vial (Vacutainer, Li/heparin, ED Bioscience, Plymouth, UK). The erythrocytes were packed by centrifugation, and the plasma and buffy coat were removed by aspiration. Erythrocytes were washed three times in the experimental salt solution and then stored at 0° C. until use. Blood samples from NMRI mice or from Wistar rats were treated similarly. The methodological principle is outlined in Macey et al. (1978) and further described in Strøbaek et al. (2013). Activation of the erythrocyte KCa3.1 channels were obtained by addition of the Ca^2+ ionophore A23187, which causes synchronized hyperpolarization, which is reported as a CCCP-mediated shift in the unbuffered extracellular pH of the erythrocyte suspension. Standard procedure: 3 mL unbuffered experimental salt solution (in mM: 2 KCl, 154 NaCl, 0.05 CaCl2) was heated to 37° C. with stirring. Packed erythrocytes were added (50 μL, final cytocrit 1.5%), and the extracellular pH (pHo) followed with a glass/calomel (pHG200-8/REF200, Radiometer, Denmark) electrode pair. CCCP (3 μL, final concentration 20 μM) was added followed by varying concentrations of test compounds (DMSO concentration constant). After pH stabilization at ˜7.2, A23187 (3 μL, final concentration 0.33 μM) was added to initiate the experiment. After the peak hyperpolarization was attained, the intracellular pH (pHi constant during the experiment) was found by haemolysing the erythrocytes via addition of 100 μL of Triton-X100.
The erythrocyte membrane potential, Vm, was calculated according to: […]
and the fractional remaining Ca^2+-activated K^+-conductance at the concentration C of blocker, fGK(C), was calculated from
where the K^+ equilibrium potential EK=−107 mV, the Cl^− equilibrium potential ECl=−12 mV and the Vm(0) and Vm(C) are the peak hyperpolarizations in the control and in the presence of a concentration of C of blocker respectively.
IC50 values for compounds were calculated from a plot of fGK(C) versus C by a fit to the Hill equation, using a custom program written in the IGOR-Pro software (WaveMetrics, Lake Oswego, OR, USA). All IC50-values are reported in μM.

[2] = 50 mM potassium phosphate buffer pH 7.40, 16 hr at ~25° C., incubation concentration 1600 μM

SMILES	solubility at 16 h (physchem)	IC50 [1]	other results
COC(=O)N(CCN(C)C)C1(c2ccc(F)c(C(F)(F)F)c2)CC1 [Methyl N-(2-(dimethylamino)ethyl)-N-(1-(4-fluoro-3-(trifluoromethyl)phenyl)cyclopropyl) carbamate]	–	< 1 µM	Measured Solubility in pH 7.4 phosphate buffer (mg/ml) (physchem; [2]): 0.5409 mg/ml; Measured Solubility in pH 7.4 phosphate buffer (μM) (physchem; [2]): 1600 μM
NC1(CNC2(c3ccc(F)c(C(F)(F)F)c3)CC2)CC1 [N-((1-aminocyclopropyl)methyl)-1-(4-fluoro-3-(trifluoromethyl)phenyl)cyclopropan-1-amine]	464 µg/mL and 1400 µM	< 0.3 µM	–
Fc1ccc(C2(NC[C@H]3CCCN3)CCC2)cc1C1CC1 [1-(3-cyclopropyl-4-fluorophenyl)-N-{[(2R)-pyrrolidin-2-yl]methyl}cyclobutan-1-amine]	–	< 1 µM	–
O=C1CSc2ccccc2N1Cc1cccc(C(F)(F)F)c1 [NS6180, 4-[[3-(Trifluoromethyl)-phenyl]methyl]-2H-1,4-benzothiazin-3(4H)-one, reference compound]	2.8 µM and 0.9 µg/mL	–	Measured Solubility in pH 7.4 phosphate buffer (μM) (physchem; 16 h, pH 7.4): 2.8 μM
COC(=O)N(C[C@@H]1CCCN1)C1(c2cccc(Cl)c2)CCC1 [Methyl N-[1-(3-chlorophenyl)cyclobutyl]-N-{[(2S)-pyrrolidin-2-yl]methyl}carbamate]	–	< 0.3 µM	–
COC(=O)N(C[C@@H]1CCCN1)C1(c2cc(C(F)(F)F)ccc2F)CCC1 [Methyl N-{1-[2-fluoro-5-(trifluoromethyl)phenyl]cyclobutyl}-N-{[(2S)-pyrrolidin-2-yl]methyl}carbamate]	–	< 1 µM	–
O=C(OCC1CC1)N(C[C@@H]1CCCN1)C1(c2ccc(F)c(C(F)(F)F)c2)CC1 [Cyclopropylmethyl (S)-(1-(4-fluoro-3-(trifluoromethyl)phenyl)cyclopropyl)(pyrrolidin-2-ylmethyl)carbamate]	–	< 0.3 µM	–
COC(=O)N(C[C@H]1CCCN1)C1(c2ccc(F)c(C(F)(F)F)c2)CCC1 [methyl N-{1-[4-fluoro-3-(trifluoromethyl)phenyl]cyclobutyl}-N-{[(2R)-pyrrolidin-2-yl]methyl}carbamate]	–	< 0.3 µM	–
CS(=O)(=O)N(C[C@H]1CCCN1)C1(c2ccc(F)c(C(F)(F)F)c2)CC1 [(R)-N-(1-(4-fluoro-3-(trifluoromethyl)phenyl)cyclopropyl)-N-(pyrrolidin-2-ylmethyl) methane sulfonamide]	–	< 1 µM	–
COC(=O)N(C[C@@H]1CCCN1)C1(c2cc(F)cc(C(F)(F)F)c2)CCC1 [Methyl N-{1-[3-fluoro-5-(trifluoromethyl)phenyl]cyclobutyl}-N-{[(2S)-pyrrolidin-2-yl]methyl}carbamate]	–	< 0.3 µM	–
Fc1ccc(C2(NC[C@H]3CCCN3)CCC2)cc1C(F)(F)F [1-[4-fluoro-3-(trifluoromethyl)phenyl]-N-{[(2R)-pyrrolidin-2-yl]methyl}cyclobutan-1-amine]	–	< 1 µM	–
COC(=O)N(CC(C)(C)N)C1(c2cc(Cl)ccc2F)CCC1 [Methyl N-(2-amino-2-methylpropyl)-N-[1-(5-chloro-2-fluorophenyl)cyclobutyl]carbamate]	–	< 1 µM	–

The next lines start with results.

solubility at 16 h (physchem)	IC50 [1]	SMILES	other results
138 µg/mL and 400 µM	< 0.3 µM	COC(=O)N(CC(C)(C)NO)C1(c2ccc(F)c(C(F)(F)F)c2)CC1 [Methyl (1-(4-fluoro-3-(trifluoromethyl)phenyl)cyclopropyl)(2-(hydroxyamino)-2-methylpropyl)carbamate]	–
526 µg/mL and 1400 µM	< 0.3 µM	COC(=O)N(CC(C)(C)N)C1(c2cccc(C(F)(F)F)c2)CC1 [Methyl (2-amino-2-methylpropyl)(1-(3-(trifluoromethyl)phenyl)cyclopropyl)carbamate]	–
621 µg/mL and 1600 µM	< 0.3 µM	CN1CCC[C@H]1CN(C1(c2ccc(F)c(C(F)(F)F)c2)CC1)S(C)(=O)=O [(S)-N-(1-(4-fluoro-3-(trifluoromethyl)phenyl)cyclopropyl)-N-((1-methylpyrrolidin-2-yl)methyl)methanesulfonamide]	–
481 µg/mL and 1400 µM	< 0.3 µM	CC(C)(N)CN(C1CC1)C1(c2cccc(C(F)(F)F)c2)CC1 [N1-cyclopropyl-2-methyl-N1-(1-(3-(trifluoromethyl)phenyl)cyclopropyl)propane-1,2-diamine]	–
615 µg/mL and 1600 µM	< 0.3 µM	CC(C)OC(=O)N(C[C@@H]1CCCN1)C1(c2ccc(F)c(C(F)(F)F)c2)CC1 [Isopropyl (S)-(1-(4-fluoro-3-(trifluoromethyl)phenyl)cyclopropyl)(pyrrolidin-2-ylmethyl)carbamate]	–
511 µg/mL and 1500 µM	< 0.3 µM	CC(C)(N)CN(CC1CC1)C1(c2ccc(F)c(C(F)(F)F)c2)CC1 [N1-(cyclopropylmethyl)-N1-(1-(4-fluoro-3-(trifluoromethyl)phenyl)cyclopropyl)-2-methyl propane-1,2-diamine]	–
653 µg/mL and 1600 µM	< 0.3 µM	COC(=O)N(C[C@@H]1CCCN1)C1(c2ccc(F)c(C(F)(F)F)c2)CC1 [Methyl (S)-(1-(4-fluoro-3-(trifluoromethyl)phenyl)cyclopropyl)(pyrrolidin-2-ylmethyl)carbamate]	–
–	< 0.3 µM	CCOC(=O)N(C[C@@H]1CCCN1C)C1(c2ccc(F)c(C(F)(F)F)c2)CC1 [Ethyl (S)-(1-(4-fluoro-3-(trifluoromethyl)phenyl)cyclopropyl)((1-methylpyrrolidin-2-yl)methyl) carbamate]	Measured Solubility in pH 7.4 phosphate buffer (mg/ml) (physchem; [2]): 0.5679 mg/ml; Measured Solubility in pH 7.4 phosphate buffer (μM) (physchem; [2]): 1500 μM
–	< 1 µM	CS(=O)(=O)N(CC1(N)CC1)C1(c2ccc(F)c(C(F)(F)F)c2)CC1 [N-((1-aminocyclopropyl)methyl)-N-(1-(4-fluoro-3-(trifluoromethyl)-phenyl)cyclopropyl)methanesulfonamide]	–
–	< 0.3 µM	COC(=O)N(C[C@H]1CCCN1)C1(c2cccc(OC(F)(F)F)c2)CCC1 [Methyl N-{[(2R)-pyrrolidin-2-yl]methyl}-N-{1-[3-(trifluoromethoxy)phenyl]cyclobutyl}carbamate]	–
–	< 0.3 µM	CC(C)(N)CN(C1CCC1)C1(c2cccc(C(F)(F)F)c2)CC1 [N1-cyclobutyl-2-methyl-N1-(1-(3-(trifluoromethyl)phenyl)cyclopropyl)propane-1,2-diamine]	–
–	< 1 µM	COC(=O)N(CCN)C1(c2ccc(F)c(C(F)(F)F)c2)CC1 [Methyl (2-aminoethyl)(1-(4-fluoro-3-(trifluoromethyl)phenyl)cyclopropyl)carbamate]	–
–	< 0.3 µM	COC(=O)N(C[C@@H]1CCCN1)C1(c2cccc(OC(F)(F)F)c2)CCC1 [Methyl N-{[(2S)-pyrrolidin-2-yl]methyl}-N-{1-[3-(trifluoromethoxy)phenyl]cyclobutyl}carbamate]	–
–	< 1 µM	FC(F)(F)Oc1cccc(C2(NC[C@@H]3CCCN3)CCC2)c1 [N-{[(2S)-pyrrolidin-2-yl]methyl}-1-[3-(trifluoromethoxy)phenyl]cyclobutan-1-amine]	–
–	< 0.3 µM	COC(=O)N(CC(C)(C)N)C1(c2cc(F)cc(C(F)(F)F)c2)CCC1 [Methyl N-(2-amino-2-methylpropyl)-N-{1-[3-fluoro-5-(trifluoromethyl)phenyl]cyclobutyl}carbamate]	–
–	< 1 µM	FC(F)(F)c1cccc(C2(NC[C@@H]3CCCN3)CCC2)c1 [N-{[(2S)-pyrrolidin-2-yl]methyl}-1-[3-(trifluoromethyl)phenyl]cyclobutan-1-amine]	–
–	< 0.3 µM	COC(=O)N(CC(C)(C)N)C1(c2ccc(F)c(C(F)(F)F)c2)CCC1 [methyl N-(2-amino-2-methylpropyl)-N-{1-[4-fluoro-3-(trifluoromethyl)phenyl]cyclobutyl}carbamate]	–
–	< 0.3 µM	CC(C)(N)CNC1(c2cccc(C(F)(F)F)c2)CCC1 [2-methyl-N1-{1-[3-(trifluoromethyl)phenyl]cyclobutyl}propane-1,2-diamine]	–
